Laboratory results reported in PubChem BioAssay (NCI).
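Exposure lasted 48 hours, with cells grown in 96-well plates and compounds tested at five concentrations. GI50: concentration for 50% inhibition of growth. TGI marks complete inhibition of growth.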

Key:
Assay in all cases: NCI anticancer screen, dose series, 48 h
OVCAR-3 ovarian = system: OVCAR-3 ovarian
M14 melanoma = system: M14 melanoma
MDA-MB-231 breast = system: MDA-MB-231 breast
SK-MEL-5 melanoma = system: SK-MEL-5 melanoma
HOP-62 NSCLC = system: HOP-62 NSCLC
COLO 205 colon = system: COLO 205 colon
OVCAR-4 ovarian = system: OVCAR-4 ovarian
LOX IMVI melanoma = system: LOX IMVI melanoma
HCC-2998 colon = system: HCC-2998 colon
HT29 colon = system: HT29 colon
K-562 leukemia = system: K-562 leukemia
NCI-H460 lung = system: NCI-H460 lung
MOLT-4 leukemia = system: MOLT-4 leukemia
A549 NSCLC = system: A549 NSCLC
NCI-H226 lung = system: NCI-H226 lung
ACHN renal = system: ACHN renal
OVCAR-8 ovarian = system: OVCAR-8 ovarian
UO-31 renal = system: UO-31 renal
NCI-H522 lung = system: NCI-H522 lung
SK-OV-3 ovarian = system: SK-OV-3 ovarian
KM12 colon = system: KM12 colon
UACC-62 melanoma = system: UACC-62 melanoma
DU-145 prostate = system: DU-145 prostate
UACC-257 melanoma = system: UACC-257 melanoma
BT-549 breast = system: BT-549 breast
U251 CNS = system: U251 CNS
NCI/ADR-RES ovarian = system: NCI/ADR-RES ovarian
MCF7 breast = system: MCF7 breast
786-0 renal = system: 786-0 renal
MDA-MB-435 = system: MDA-MB-435
SR leukemia = system: SR leukemia
RXF 393 renal = system: RXF 393 renal
HL-60(TB) leukemia = system: HL-60(TB) leukemia
A498 renal = system: A498 renal
NCI-H23 lung = system: NCI-H23 lung
HCT-116 colon = system: HCT-116 colon
SF-539 CNS = system: SF-539 CNS
SNB-19 CNS = system: SNB-19 CNS
SK-MEL-2 melanoma = system: SK-MEL-2 melanoma
SK-MEL-28 melanoma = system: SK-MEL-28 melanoma
TK-10 renal = system: TK-10 renal
EKVX NSCLC = system: EKVX NSCLC
SF-268 CNS = system: SF-268 CNS
CCRF-CEM leukemia = system: CCRF-CEM leukemia
SF-295 CNS = system: SF-295 CNS
HCT-15 colon = system: HCT-15 colon
SN12C renal = system: SN12C renal
HOP-92 NSCLC = system: HOP-92 NSCLC
MALME-3M melanoma = system: MALME-3M melanoma
CAKI-1 renal = system: CAKI-1 renal
SNB-75 CNS = system: SNB-75 CNS

For `CC1(C)C(=O)/C(=C\c2ccccn2)C[C@]2(C)[C@H]3CC[C@@H]4[C@@H](C(=O)/C=C/c5ccccn5)CC[C@@]4(C)[C@]3(C)CC[C@@H]12`, the GI50 (OVCAR-3 ovarian) was 0.538 µM, the TGI (OVCAR-3 ovarian) was 1.85 µM and the GI50 (M14 melanoma) was 0.907 µM. For the same molecule, the TGI (M14 melanoma) was 3.14 µM, the GI50 (MDA-MB-231 breast) was 0.532 µM and the TGI (MDA-MB-231 breast) was 2.53 µM. It also gave a GI50 (SK-MEL-5 melanoma) of 1.51 µM, a TGI (SK-MEL-5 melanoma) of 2.89 µM and a GI50 (HOP-62 NSCLC) of 2.14 µM. For the same molecule, the TGI (HOP-62 NSCLC) was 5.82 µM, the GI50 (COLO 205 colon) was 1.76 µM and the TGI (COLO 205 colon) was 4.38 µM. The GI50 (OVCAR-4 ovarian) was 2.41 µM, the TGI (OVCAR-4 ovarian) was over 100 µM and the GI50 (LOX IMVI melanoma) was 0.232 µM. For the same molecule, the TGI (LOX IMVI melanoma) was 0.565 µM, the GI50 (HCC-2998 colon) was 1.8 µM and the TGI (HCC-2998 colon) was 3.49 µM. For the same molecule, the GI50 (HT29 colon) was 1.05 µM, the TGI (HT29 colon) was 3.46 µM and the GI50 (K-562 leukemia) was 0.347 µM. It also gave a TGI (K-562 leukemia) of over 100 µM, a GI50 (NCI-H460 lung) of 1.97 µM and a TGI (NCI-H460 lung) of 4.2 µM. The GI50 (MOLT-4 leukemia) was 0.537 µM, the TGI (MOLT-4 leukemia) was over 100 µM and the GI50 (A549 NSCLC) was 2.02 µM. The TGI (A549 NSCLC) was over 28.2 µM, the GI50 (NCI-H226 lung) was 1.8 µM and the TGI (NCI-H226 lung) was 4.85 µM. It also gave a GI50 (ACHN renal) of 0.479 µM, a TGI (ACHN renal) of 1.69 µM and a GI50 (OVCAR-8 ovarian) of 0.493 µM. For the same molecule, the TGI (OVCAR-8 ovarian) was over 100 µM, the GI50 (UO-31 renal) was 0.787 µM and the TGI (UO-31 renal) was 2.1 µM. The GI50 (NCI-H522 lung) was 2.01 µM, the TGI (NCI-H522 lung) was 4.52 µM and the GI50 (SK-OV-3 ovarian) was 3.89 µM. It also gave a TGI (SK-OV-3 ovarian) of over 100 µM, a GI50 (KM12 colon) of 1.67 µM and a TGI (KM12 colon) of 3.21 µM. For the same molecule, the GI50 (UACC-62 melanoma) was 1.19 µM, the TGI (UACC-62 melanoma) was 2.58 µM and the GI50 (DU-145 prostate) was 1.76 µM. The TGI (DU-145 prostate) was 3.23 µM, the GI50 (UACC-257 melanoma) was 1.64 µM and the TGI (UACC-257 melanoma) was 5.47 µM. It also gave a GI50 (BT-549 breast) of 1.38 µM, a TGI (BT-549 breast) of 4.26 µM and a GI50 (U251 CNS) of 0.749 µM. For the same molecule, the TGI (U251 CNS) was 2.08 µM, the GI50 (NCI/ADR-RES ovarian) was 1.47 µM and the TGI (NCI/ADR-RES ovarian) was 5.93 µM. The GI50 (MCF7 breast) was 0.405 µM, the TGI (MCF7 breast) was 3.89 µM and the GI50 (786-0 renal) was 1.2 µM. For the same molecule, the TGI (786-0 renal) was 2.77 µM, the GI50 (MDA-MB-435) was 0.296 µM and the TGI (MDA-MB-435) was 0.885 µM. For the same molecule, the GI50 (SR leukemia) was 0.342 µM, the TGI (SR leukemia) was 2.11 µM and the GI50 (RXF 393 renal) was 0.859 µM. For the same molecule, the TGI (RXF 393 renal) was 2.26 µM, the GI50 (HL-60(TB) leukemia) was 0.486 µM and the TGI (HL-60(TB) leukemia) was 3.95 µM. For the same molecule, the GI50 (A498 renal) was 1.67 µM, the TGI (A498 renal) was 3.11 µM and the GI50 (NCI-H23 lung) was 2 µM. The TGI (NCI-H23 lung) was 4.63 µM, the GI50 (HCT-116 colon) was 0.263 µM and the TGI (HCT-116 colon) was 0.795 µM.
With `CCCCCCNC(=O)Nc1ccc2cc3ccc(NC(=O)NCCCCCC)cc3nc2c1` the GI50 (SF-539 CNS) was 1.58 µM, the TGI (SF-539 CNS) was 3 µM and the GI50 (MDA-MB-231 breast) was 1.54 µM. It also gave a TGI (MDA-MB-231 breast) of 3.11 µM, a GI50 (SNB-19 CNS) of 1.73 µM and a TGI (SNB-19 CNS) of 3.36 µM. For the same molecule, the GI50 (SK-MEL-2 melanoma) was 1.9 µM, the TGI (SK-MEL-2 melanoma) was 4.01 µM and the GI50 (HOP-62 NSCLC) was 1.81 µM. For the same molecule, the TGI (HOP-62 NSCLC) was 4.88 µM, the GI50 (SK-MEL-28 melanoma) was 1.72 µM and the TGI (SK-MEL-28 melanoma) was 3.14 µM. The GI50 (LOX IMVI melanoma) was 0.268 µM, the TGI (LOX IMVI melanoma) was 0.737 µM and the GI50 (HT29 colon) was 2.24 µM. For the same molecule, the TGI (HT29 colon) was over 100 µM, the GI50 (TK-10 renal) was 23.5 µM and the TGI (TK-10 renal) was over 100 µM. For the same molecule, the GI50 (EKVX NSCLC) was 5.79 µM, the TGI (EKVX NSCLC) was over 100 µM and the GI50 (SF-268 CNS) was 1.2 µM. The TGI (SF-268 CNS) was 2.96 µM, the GI50 (CCRF-CEM leukemia) was 0.258 µM and the TGI (CCRF-CEM leukemia) was 0.714 µM. It also gave a GI50 (NCI-H226 lung) of 4.95 µM, a TGI (NCI-H226 lung) of over 100 µM and a GI50 (ACHN renal) of 43.5 µM. For the same molecule, the TGI (ACHN renal) was over 100 µM, the GI50 (SF-295 CNS) was 2.32 µM and the TGI (SF-295 CNS) was 6.04 µM. The GI50 (OVCAR-8 ovarian) was 0.614 µM, the TGI (OVCAR-8 ovarian) was 2.88 µM and the GI50 (UO-31 renal) was over 100 µM. It also gave a TGI (UO-31 renal) of over 100 µM, a GI50 (UACC-62 melanoma) of 1.21 µM and a TGI (UACC-62 melanoma) of 2.53 µM. It also gave a GI50 (DU-145 prostate) of 2 µM, a TGI (DU-145 prostate) of over 100 µM and a GI50 (HCT-15 colon) of over 100 µM. It also gave a TGI (HCT-15 colon) of over 100 µM, a GI50 (BT-549 breast) of 4.09 µM and a TGI (BT-549 breast) of over 100 µM. The GI50 (U251 CNS) was 0.336 µM, the TGI (U251 CNS) was 1.29 µM and the GI50 (SN12C renal) was 1.08 µM. It also gave a TGI (SN12C renal) of 2.51 µM, a GI50 (HOP-92 NSCLC) of 1.67 µM and a TGI (HOP-92 NSCLC) of 4.07 µM. It also gave a GI50 (MALME-3M melanoma) of 1.63 µM, a TGI (MALME-3M melanoma) of 3.12 µM and a GI50 (NCI/ADR-RES ovarian) of 83.7 µM. It also gave a TGI (NCI/ADR-RES ovarian) of over 100 µM, a GI50 (MCF7 breast) of 0.396 µM and a TGI (MCF7 breast) of 1.57 µM. The GI50 (CAKI-1 renal) was over 26.5 µM, the TGI (CAKI-1 renal) was over 100 µM and the GI50 (786-0 renal) was 2.52 µM. The TGI (786-0 renal) was over 26.6 µM, the GI50 (MDA-MB-435) was 0.406 µM and the TGI (MDA-MB-435) was 1.51 µM. The GI50 (SR leukemia) was 0.284 µM, the TGI (SR leukemia) was 1.27 µM and the GI50 (RXF 393 renal) was 1.4 µM. For the same molecule, the TGI (RXF 393 renal) was 5.51 µM, the GI50 (SNB-75 CNS) was 1.45 µM and the TGI (SNB-75 CNS) was 3.16 µM. The GI50 (A498 renal) was 1.88 µM, the TGI (A498 renal) was over 28.7 µM and the GI50 (HCT-116 colon) was 0.358 µM. The TGI (HCT-116 colon) was 1.25 µM.
